Measured values published in US10130714B2 (priority 2012, dated 2018).
pEC50, pIC50: −log10 of the molar value. Entries after “also recorded” stand apart in the source; their conditions may differ. Read-outs that look alike come from different tables or passages of the source.

Columns and labels:
[1] = target: neuraminidase of influenza A/WSN/1933 (H1N1) virus (Influenza A virus, UniProt P03470); test: biochemical; type: biochemical
[2] = tested on: recombinant NIBRG-14 (A/Viet Nam/1194/2004) H5N1 virus; test: microbe, parasite or virus in culture; type: cell-based, avian H5N1 influenza virus; conditions: for pEC50: Influenza A virus, H5N1, read-out: EC50 against avian H5N1 virus
[3] = tested on: influenza A/Cal/07/2009 H1N1; set-up: species or system BALB/c mice; conditions: mouse, in vivo
[4] = tested on: NIBRG-14 (A/VietNam/1194/2004) H5N1; type: in vivo, BALB/c mice; conditions: for survival of H5N1 infected mice (in words): 12 μmol/kg/day intranasal, 10 LD50 NIBRG-14, FIG. 17A/17B
[5] = tested on: mRNA encoding IL-6 in LPS-activated RAW264.7 cells; type: cell-based
[6] = tested on: mRNA encoding TNF-α in LPS-activated RAW264.7 cells; type: cell-based
IL-6 = tested on: IL-6; set-up: species or system mice; conditions: mouse, in vivo
IFN-γ = tested on: IFN-γ; set-up: species or system mice; conditions: mouse, in vivo
A/WSN/1933 (H1N1) virus = test: Cytopathic prevention assay in MDCK cells, H1N1; type: cell-based, influenza A/WSN/1933 (H1N1); conditions: for anti-influenza activity (in words): H1N1 virus
Description: The cytopathic prevention assays in Madin-Darby canine kidney (MDCK) cells were conducted to evaluate the anti-influenza activity. To our anticipation, the ZA-7-conjugates were potent inhibitors against human H1N1 virus (Table 2). The ZA-1-conjugates 9-12 also resumed anti-influenza activity in the cell-based assays. […] The anti-influenza activity could not be caused by caffeic esters alone. (Salomon, R. et al. Proc. Natl. Acad. Sci. U.S.A. 2007, 104, 12479)
The anti-flu activities of neuraminidase inhibitors were measured by the EC50 values that were the concentrations of NA inhibitor for 50% protection of the H1N1 CPE activities. Fifty μL diluted H1N1 at 100 TCID50 were mixed with equal volumes of NA inhibitors at varied concentrations. The mixtures were used to infect 100 μL of MDCK cells at 1×10^5 cells/mL in 96-wells. After 48 h incubation at 37° C. under 5.0% CO2, the cytopathic effects (CPE) were determined with CellTiter 96® AQueous Non-Radioactive Cell Proliferation Assay reagent as described above. Inhibitor EC50 value were determined by fitting the curve of percent CPE versus the concentrations of NA inhibitor using Graph Pad Prism 4.

[7] = Sprague Dawley, rat
[8] = humans; cited from earlier work
[9] = Influenza A virus, MDCK, A/WSN/1933 (H1N1) virus, table data are ranges or single assay results, read-out: EC50 (nM), anti-influenza activity
[10] = A/WSN/1933 (H1N1) virus, table data are ranges or single assay results, read-out: EC50 (nM), anti-influenza activity

Sequence of neuraminidase of influenza A/WSN/1933 (H1N1) virus (P03470 whole entry, looked up): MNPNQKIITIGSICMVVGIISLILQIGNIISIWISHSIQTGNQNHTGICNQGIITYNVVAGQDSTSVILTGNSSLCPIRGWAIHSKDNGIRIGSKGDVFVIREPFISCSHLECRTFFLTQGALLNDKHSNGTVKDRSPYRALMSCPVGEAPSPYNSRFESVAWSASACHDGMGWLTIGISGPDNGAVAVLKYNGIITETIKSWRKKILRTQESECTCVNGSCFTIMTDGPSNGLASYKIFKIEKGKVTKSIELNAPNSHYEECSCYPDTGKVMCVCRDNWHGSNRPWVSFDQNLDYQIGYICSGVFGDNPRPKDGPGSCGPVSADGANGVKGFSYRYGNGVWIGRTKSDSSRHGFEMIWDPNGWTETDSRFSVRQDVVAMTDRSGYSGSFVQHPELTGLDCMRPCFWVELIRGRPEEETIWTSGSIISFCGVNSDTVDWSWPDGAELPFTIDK

CC(=O)NC1C(NC(=N)N)C=C(C(=O)O)OC1C(OC(=O)NCCCOC(=O)c1cc(N)ccc1O)C(O)CO (centres unmarked) [ZA-7-ME (3)]
pIC50 [1]: 7.25 to 8.07 | pEC50 [2]: 6.37 | protection of H1N1 virus infected mice [3]: greater protection than ZA, CA or ME; also recorded: good activity | survival of H5N1 infected mice (in words) [4]: did not provide better protection effect than ZA | mRNA encoding IL-6 [5]: dose-dependent decreases | mRNA encoding TNF-α [6]: dose-dependent decreases | level of IL-6 in serum (IL-6): lower | level of IFN-γ in serum (IFN-γ): lower

CC(=O)NC1C(NC(=N)N)C=C(C(=O)OCCCOC(=O)C=Cc2ccc(O)c(O)c2)OC1C(O)C(O)CO (centres unmarked) [ZA-1-CA (9)]
pIC50 [1]: 5.54 | EC50 (A/WSN/1933 (H1N1) virus; [9]): 25 nM

CC(=O)NC1C(NC(=N)N)C=C(C(=O)O)OC1C(OC(=O)NCCCNC(=O)C=Cc1ccc(O)c(O)c1)C(O)CO (centres unmarked) [ZA-7-CA-amide (7)]
pIC50 [1]: 7.22 to 7.38 | EC50 (A/WSN/1933 (H1N1) virus; [10]): 5.9 nM | EC50 (A/WSN/1933 (H1N1) virus; [9]): 5.1 nM | survival at day 14 [3]: 50% | survival at day 14 / protection from virus-induced death [3]: 100% | survival rate of H1N1 infected mice (in words) [3]: did not improve the survival rate | survival rate of H5N1 infected mice (in words) ([4]; 1.2 μmol/kg/day intranasal, FIG. 17B): improved survival rate | survival of H5N1 infected mice (in words) [4]: greater potency

CC(=O)NC1C(N=C(N)N)C=C(C(=O)OCCCOC(=O)c2ccc3ccccc3c2O)OC1C(O)C(O)CO (centres unmarked) [ZA-1-HNAP (12)]
pIC50 [1]: 6.23 | EC50 (A/WSN/1933 (H1N1) virus; [9]): 48 nM

CC(=O)NC1C(NC(=N)N)C=C(C(=O)O)OC1C(OC(=O)NCCCOC(=O)c1ccc(O)c(O)c1)C(O)CO (centres unmarked) [ZA-7-DHBA (5)]
pIC50 [1]: 8.54 | EC50 (A/WSN/1933 (H1N1) virus; [9]): 53 nM

Nc1ccc(O)c(C(=O)O)c1 [ME, mesalazine, reference compound]
NA inhibitory activity (in words) [1]: did not exhibit any NA inhibitory activity | EC50 (A/WSN/1933 (H1N1) virus; [9]): > 100000 nM | mRNA encoding IL-6 [5]: dose-dependent decreases | mRNA encoding TNF-α [6]: dose-dependent decreases

CC(C)(C)OC(=O)NCCCOC(=O)C=Cc1ccc(O)c(O)c1 [3-(tert-butoxyamido)propyl caffeate, reference compound]
anti-influenza activity (in words) (A/WSN/1933 (H1N1) virus): inactive

O=C(O)c1ccc2ccccc2c1O [HNAP, 1-hydroxy-2-naphthoic acid, reference compound]
EC50 (A/WSN/1933 (H1N1) virus; [9]): > 100000 nM

CC(=O)NC1C(NC(=N)N)C=C(C(=O)O)OC1C(OC(=O)NCCCOC(=O)c1ccc2ccccc2c1O)C(O)CO (centres unmarked) [ZA-7-HNAP (4)]
pIC50 [1]: 8.44 to 9.15 | EC50 (A/WSN/1933 (H1N1) virus; [9]): 50 to 168 nM

CC(=O)NC1C(NC(=N)N)C=C(C(=O)O)OC1C(OC(=O)NCCCO)C(O)CO (centres unmarked) [ZA-7-HP (6), 5-Acetylamino-6-[2,3-dihydroxy-1-(3-hydroxypropylcarbamoyloxy)propyl]-4-guanidino-5,6-dihydro-4H-pyran-2-carboxylic acid]
pIC50 [1]: 7.70 to 7.93 | pEC50 [2]: 6.09

CC(=O)NC1C(NC(=N)N)C=C(C(=O)OCCCOC(=O)C=Cc2ccc3c(c2)OCO3)OC1C(O)C(O)CO (centres unmarked) [ZA-1-MCA (10)]
pIC50 [1]: 5.40 | EC50 (A/WSN/1933 (H1N1) virus; [9]): 28 nM

CC(=O)NC1C(NC(=N)N)C=C(C(=O)O)OC1C(OC(=O)NCCCOC(=O)C=Cc1ccc(O)c(O)c1)C(O)CO (centres unmarked) [ZA-7-CA (1)]
pIC50 [1]: 8.13 to 8.54 | EC50 (A/WSN/1933 (H1N1) virus; [9]): 1.4 to 10.6 nM | potency relative to zanamivir against H5N1 [2]: about 13 fold | pEC50 [2]: 7.30 | protection of H1N1 virus infected mice [3]: greater protection than ZA, CA or ME | protection of mice from influenza virus infection [3]: did not show significant protection | survival of H1N1 infected mice (in words) [3]: all the mice died at day 12 except for those treated with conjugate 1; also recorded: all survived at day 14 | survival rate at day 14 [3]: 40% | survival of H5N1 infected mice (in words) [4]: all survived | mRNA encoding IL-6 [5]: dose-dependent decreases | mRNA encoding TNF-α [6]: dose-dependent decreases | level of IL-6 in serum (IL-6): lower | level of IFN-γ in serum (IFN-γ): lower | stability / enzymatic cleavage in plasma [7]: released a degradation product ZA-7-HP (6)

O=C(O)/C=C/c1ccc(O)c(O)c1 [CA, caffeic acid, reference compound]
NA inhibitory activity (in words) [1]: did not exhibit any NA inhibitory activity | EC50 (A/WSN/1933 (H1N1) virus; [9]): > 100000 nM | survival of H1N1 infected mice (in words) [3]: all the mice died at day 12 | mRNA encoding IL-6 [5]: dose-dependent decreases | mRNA encoding TNF-α [6]: dose-dependent decreases

CC(=O)NC1C(NC(=N)NC(=O)C(C)c2ccc(CC(C)C)cc2)C=C(C(=O)O)OC1C(O)C(O)CO (centres unmarked) [ZA-G-Ibu (47)]
pIC50 [1]: 7.09 to 7.36 | EC50 (A/WSN/1933 (H1N1) virus; [9]): 18 to 20 nM

CC(=O)N[C@H]1[C@H]([C@H](O)[C@H](O)CO)OC(C(=O)O)=C[C@@H]1N=C(N)N [ZA, zanamivir, reference compound]
EC50 (A/WSN/1933 (H1N1) virus; [10]): 3.5 to 20.2 nM | EC50 (A/WSN/1933 (H1N1) virus; read-out: EC50 (nM), anti-influenza activity, A/WSN/1933 (H1N1) virus, table data are ranges or single assay results): 14 nM | pEC50 [2]: 6.17 | survival at day 14 / protection from virus-induced death [3]: 10% | survival of H1N1 infected mice (in words) [3]: all the mice died at day 12 | survival of H5N1 infected mice (in words) [4]: did not improve the survival rate | bioavailability [8]: ~5%

3,4-(methylenedioxy)cinnamic acid [MCA, reference compound]
NA inhibitory activity (in words) [1]: did not exhibit any NA inhibitory activity | IC50 ([1]; read-out: IC50 (nM), influenza neuraminidase inhibition): > 100000 nM | EC50 (A/WSN/1933 (H1N1) virus; [10]): > 100000 nM | mRNA encoding IL-6 [5]: dose-dependent decreases | mRNA encoding TNF-α [6]: dose-dependent decreases

O=C(/C=C/c1ccc(O)c(O)c1)OCCCO [3-hydroxypropyl caffeate, reference compound]
anti-influenza activity (in words) (A/WSN/1933 (H1N1) virus): inactive

O=C(/C=C/c1ccc(O)c(O)c1)O[C@@H]1C[C@](O)(C(=O)O)C[C@@H](O)[C@H]1O [chlorogenic acid, reference compound]
anti-influenza activity (in words) (A/WSN/1933 (H1N1) virus): inactive

CC(=O)NC1C(NC(=N)N)C=C(C(=O)O)OC1C(OC(=O)NCCCOC(=O)C=Cc1ccc2c(c1)OCO2)C(O)CO (centres unmarked) [ZA-7-MCA (2)]
pIC50 [1]: 8.10 to 8.27

CC(=O)NC1C(NC(=N)N)C=C(C(=O)O)OC1C(OC(=O)NCCCNC(=O)c1ccc2ccccc2c1O)C(O)CO (centres unmarked) [ZA-7-HNAP-amide (8)]
pIC50 [1]: 8.51 | EC50 (A/WSN/1933 (H1N1) virus; [9]): 6.6 nM

CC(=O)NC1C(NC(=N)N)C=C(C(=O)OCCCOC(=O)c2cc(N)ccc2O)OC1C(O)C(O)CO (centres unmarked) [ZA-1-ME (11)]
pIC50 [1]: 6.00 | EC50 (A/WSN/1933 (H1N1) virus; [9]): 16 nM
